# Values of other authors in patent US11648211B2, “Nanoencapsulated combination drug formulations” (priority 2019, dated 2023).
# Counter-ions that a name gives are not always drawn. Like-named read-outs stand apart in the source and are kept apart here.
# Columns and labels:
# [1] = in vivo, ip, 5 mg/kg
# [2] = human, in vivo
# [3] = in vivo
# advanced breast cancer = settings: in vivo
# [4] = system: SARS-2-S-driven entry into Caco-2 cells
# [5] = system: SARS-2-S-driven entry into Vero-TMPRSS2 cells
structure (smiles),measurement,setting,value
"Cn1ncnc1[C@H]1c2n[nH]c(=O)c3cc(F)cc(c23)N[C@@H]1c1ccc(F)cc1 [TLZ, Talazoparib]","patients with anemia, low RBC count",oral,52%
same,"patients with leukopenia, low WBC count",oral,17%
same,"patients with thrombocytopenia, low PLT count",oral,27%
same,patients with neutropenia,patients treated with TLZ,35%
"CCc1cnn2c(NCc3ccc[n+]([O-])c3)cc(N3CCCC[C@H]3CCO)nc12 [DCB, Dinaciclib]",half-life,[1],0.25 h
same,half-life,[2],3.3 h
same,patients with neutropenia,[2],43%
same,patients with thrombocytopenia,[2],3%
same,patients with grade 3-4 toxicities,[3],60%
same,grade 3-4 febrile neutropenia,advanced breast cancer,11%
same,grade 3-4 increased transaminase levels,advanced breast cancer,11%
same,grade 3-4 leukopenia,advanced breast cancer,21%
same,grade 3-4 neutropenia,advanced breast cancer,47%
CN(C)C(=O)COC(=O)Cc1ccc(OC(=O)c2ccc(NC(=N)N)cc2)cc1 [Camostat mesylate],SARS-2-S-driven entry,[4],partially blocked
same,SARS-2-S-driven entry,[5],partially blocked
